Assay results reported in patent publication US8809352B2, “Sulfonamides as inhibitors of Bcl-2 family proteins for the treatments of cancer” (Novartis AG, priority 2009, dated 2014).

target: BCL2 (Homo sapiens, UniProt P10415); assay: Biacore SPR solution inhibition assay of BCL-2 binding to peptide derivatized sensor surfaces; conditions: SPR competition; 56 nM BCL2 pre-equilibrated with compound one hour; biotinylated BAK, BAD and NOXA peptide surfaces; 25° C.
Summary of the method: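 Solution-competition SPR at 25 °C in HEPES pH 7.4 buffer with 1.25 mM DTT and 3% DMSO: compounds (6-point threefold series, 16 μM to 0.004 nM) pre-equilibrated 1 h with 56 nM BCL2, then injected over captured biotinylated BAK, BAD and NOXA peptide surfaces. Binding levels relative to BCL2-only controls gave % inhibition.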

Chain of BCL2 (P10415 whole entry): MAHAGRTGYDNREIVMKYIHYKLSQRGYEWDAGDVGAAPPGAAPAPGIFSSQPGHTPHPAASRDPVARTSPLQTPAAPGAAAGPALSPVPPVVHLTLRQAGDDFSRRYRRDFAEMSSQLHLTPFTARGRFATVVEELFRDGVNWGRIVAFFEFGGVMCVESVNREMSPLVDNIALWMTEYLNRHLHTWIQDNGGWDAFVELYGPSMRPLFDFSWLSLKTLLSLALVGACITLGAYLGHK

IC50	Compound
2420 nM	CCC[C@H](CSc1ccccc1)Nc1ccc(S(=O)(=O)Nc2ncnc3c2CCN(C2CCN(Cc4ccccc4-c4ccc(Cl)cc4)CC2)C3)cc1S(=O)(=O)C(F)(F)F [Example 43, (R)-N-(7-(1-((4′-chlorobiphenyl-2-yl)methyl)piperidin-4-yl)-5,6,7,8-tetrahydropyrido[3,4-d]pyrimidin-4-yl)-4-(1-(phenylthio)pentan-2-ylamino)-3-(trifluoromethylsulfonyl)benzenesulfonamide]
235 nM	C[C@H](CSc1ccccc1)Nc1ccc(S(=O)(=O)Nc2ncnc3c2CCN(C2CCN(Cc4ccccc4-c4ccc(Cl)cc4)CC2)C3)cc1S(=O)(=O)C(F)(F)F [Example 44, N-(7-(1((4′-chlorobiphenyl-2-yl)-methyl)piperidin-4-yl)-5,6,7,8-tetrahydropyrido[3,4-d]pyrimidin-4-yl)-4-(1-(phenylthio)propan-2-ylamino)-3-(trifluoromethylsulfonyl)benzenesulfonamide]
365 nM	C[C@H](CSc1ccccc1)Nc1ccc(S(=O)(=O)Nc2ncnc3c2CCN(C2CCN(CC4=C(c5ccc(Cl)cc5)CC(C)(C)CC4)CC2)C3)cc1S(=O)(=O)C(F)(F)F [Example 45, N-(7-(1-((2-(4-chlorophenyl)-4,4-dimethylcyclohex-1-enyl)methyl)piperidin-4-yl)-5,6,7,8-tetrahydropyrido[3,4-d]pyrimidin-4-yl)-4-(1-(phenylthio)propan-2-ylamino)-3-(trifluoromethylsulfonyl)benzenesulfonamide]
1770 nM	CC#CCOc1ccccc1CN1CCC(N2CCc3c(ncnc3NS(=O)(=O)c3ccc(N[C@H](CCN(C)C)CSc4ccccc4)c(S(=O)(=O)C(F)(F)F)c3)C2)CC1 [Example 46, (R)-N-(7-(1-(2-(but-2-ynyloxy)benzyl)piperidin-4-yl)-5,6,7,8-tetrahydropyrido[3,4-d]pyrimidin-4-yl)-4-(4-(dimethylamino)-1-(phenylthio)butan-2-ylamino)-3-(trifluoromethylsulfonyl)benzenesulfonamide]
25 nM	CN(C)CC[C@H](CSc1ccccc1F)Nc1ccc(S(=O)(=O)Nc2ncnc3c2CCN(C2CCN(Cc4ccccc4-c4ccc(Cl)cc4)CC2)C3)cc1S(=O)(=O)C(F)(F)F [Example 47, N-{7-[1-(4′-Chloro-biphenyl-2-ylmethyl)-piperidin-4-yl]-5,6,7,8-tetrahydro-pyrido[3,4-d]pyrimidin-4-yl}-4-[(R)-3-dimethylamino-1-(2-fluoro-phenylsulfanylmethyl)-propylamino]-3-trifluoromethanesulfonyl-benzene sulfonamide]
31 nM	CN(C)CC[C@H](CSc1ccccc1)Nc1ccc(S(=O)(=O)Nc2nc(Cl)nc3c2CCN(C2CCN(Cc4ccccc4-c4ccc(Cl)cc4)CC2)C3)cc1S(=O)(=O)C(F)(F)F [Example 50, (R)-N-(2-chloro-7-(1-((4′-chlorobiphenyl-2-yl)methyl)piperidin-4-yl)-5,6,7,8-tetrahydropyrido[3,4-d]pyrimidin-4-yl)-4-(4-(dimethylamino)-1-(phenylthio)butan-2-ylamino)-3-(trifluoromethylsulfonyl)benzenesulfonamide]
35 nM	CC(c1ccccc1-c1ccc(Cl)cc1)N1CCC(N2CCc3c(ncnc3NS(=O)(=O)c3ccc(N[C@H](CCN(C)C)CSc4ccccc4)c(S(=O)(=O)C(F)(F)F)c3)C2)CC1 (stereo partly drawn) [Example 51, N-(7-(1-(1-(4′-chlorobiphenyl-2-yl)ethyl)piperidin-4-yl)-5,6,7,8-tetrahydropyrido[3,4-d]pyrimidin-4-yl)-4-((R)-4-(dimethylamino)-1-(phenylthio)butan-2-ylamino)-3-(trifluoromethylsulfonyl)benzenesulfonamide]
1310 nM	O=S(=O)(Nc1ncnc2c1CCN(C1CCN(Cc3ccccc3-c3ccc(Cl)cc3)CC1)C2)c1ccc(NCCSc2ccccc2)c(S(=O)(=O)C(F)(F)F)c1 [Example 52]
66 nM	CN(C)CC[C@H](CSc1ccccc1)Nc1ccc(S(=O)(=O)Nc2ncnc3c2CCN(C2CCN(Cc4ccccc4-c4ccc(Cl)cc4)CC2)C3)cc1C(F)(F)F [Example 53]

More lines, now with the values behind:

Compound	IC50
CN(C)CC[C@H](CSc1ccccc1Cl)Nc1ccc(S(=O)(=O)Nc2nc(C(F)(F)F)nc3c2CCN(C2CCN(CC4=C(c5ccc(Cl)cc5)CC(C)(C)CC4)CC2)C3)cc1S(=O)(=O)C(F)(F)F [Example 32, (R)-N-(7-(1-((2-(4-chlorophenyl)-4,4-dimethylcyclohex-1-enyl)methyl)piperidin-4-yl)-2-(trifluoromethyl)-5,6,7,8-tetrahydropyrido[3,4-d]pyrimidin-4-yl)-4-(1-(2-chlorophenylthio)-4-(dimethylamino)butan-2-ylamino)-3-(trifluoromethylsulfonyl)benzenesulfonamide]	87 nM
CN(C)CC[C@H](CSc1ccccc1Cl)Nc1ccc(S(=O)(=O)Nc2nc(C(F)(F)F)nc3c2CCN(C2CCN(Cc4ccccc4-c4ccc(Cl)cc4)CC2)C3)cc1S(=O)(=O)C(F)(F)F [Example 33, (R)-N-(7-(1-((4′-chlorobiphenyl-2-yl)methyl)piperidin-4-yl)-2-(trifluoromethyl)-5,6,7,8-tetrahydropyrido[3,4-d]pyrimidin-4-yl)-4-(1-(2-chlorophenylthio)-4-(dimethylamino)butan-2-ylamino)-3-(trifluoromethylsulfonyl)benzenesulfonamide]	73 nM
CC(c1ccccc1-c1ccc(Cl)cc1)N1CCC(N2CCc3c(nc(C(F)(F)F)nc3NS(=O)(=O)c3ccc(N[C@H](CCN(C)C)CSc4ccccc4Cl)c(S(=O)(=O)C(F)(F)F)c3)C2)CC1 (stereo partly drawn) [Example 34, N-(7-(1-(1-(4′-chlorobiphenyl-2-yl)ethyl)piperidin-4-yl)-2-(trifluoromethyl)-5,6,7,8-tetrahydropyrido[3,4-d]pyrimidin-4-yl)-4-((R)-1-(2-chlorophenylthio)-4-(dimethylamino)butan-2-ylamino)-3-(trifluoromethylsulfonyl)benzenesulfonamide]	99 nM
CC(c1cc(F)ccc1-c1ccc(Cl)cc1)N1CCC(N2CCc3c(ncnc3NS(=O)(=O)c3ccc(N[C@H](CCN4CCN(C)CC4)CSc4ccccc4)c(S(=O)(=O)C(F)(F)F)c3)C2)CC1 (stereo partly drawn) [Example 35, N-(7-(1-(1-(4′-chloro-4-fluorobiphenyl-2-yl)ethyl)piperidin-4-yl)-5,6,7,8-tetrahydropyrido[3,4-d]pyrimidin-4-yl)-4-((R)-4-(4-methylpiperazin-1-yl)-1-(phenylthio)butan-2-ylamino)-3-(trifluoromethylsulfonyl)benzenesulfonamide]	80 nM
COc1ccc(-c2ccc(Cl)cc2)c(CN2CCC(N3CCc4c(ncnc4NS(=O)(=O)c4ccc(N[C@H](CCN(C)C)CSc5ccccc5)c(S(=O)(=O)C(F)(F)F)c4)C3)CC2)c1 [Example 36, (R)-N-(7-(1-((4′-chloro-4-methoxybiphenyl-2-yl)methyl)piperidin-4-yl)-5,6,7,8-tetrahydropyrido[3,4-d]pyrimidin-4-yl)-4-(4-(dimethylamino)-1-(phenylthio)butan-2-ylamino)-3-(trifluoromethylsulfonyl)benzenesulfonamide]	34 nM
CN(C)CC[C@H](CSc1ccc(F)cc1)Nc1ccc(S(=O)(=O)Nc2ncnc3c2CCN(C2CCN(Cc4ccccc4-c4ccc(Cl)cc4)CC2)C3)cc1S(=O)(=O)C(F)(F)F [Example 37, N-{7-[1-(4′-Chloro-biphenyl-2-ylmethyl)-piperidin-4-yl]-5,6,7,8-tetrahydro-pyrido[3,4-d]pyrimidin-4-yl}-4-[(R)-3-dimethylamino-1-(4-fluoro-phenylsulfanylmethyl)-propylamino]-3-trifluoromethanesulfonyl-benzenesulfonamide]	58 nM
CN(C)CC[C@H](CSc1c(Cl)cccc1Cl)Nc1ccc(S(=O)(=O)Nc2ncnc3c2CCN(C2CCN(Cc4ccccc4-c4ccc(Cl)cc4)CC2)C3)cc1S(=O)(=O)C(F)(F)F [Example 38, (R)-N-(7-(1-((4′-chlorobiphenyl-2-yl)methyl)piperidin-4-yl)-5,6,7,8-tetrahydropyrido[3,4-d]pyrimidin-4-yl)-4-(1-(2,6-dichlorophenylthio)-4-(dimethylamino)butan-2-ylamino)-3-(trifluoromethylsulfonyl)benzenesulfonamide]	41 nM
CN(C)CC[C@H](CSc1ccc(Cl)c(Cl)c1)Nc1ccc(S(=O)(=O)Nc2ncnc3c2CCN(C2CCN(Cc4ccccc4-c4ccc(Cl)cc4)CC2)C3)cc1S(=O)(=O)C(F)(F)F [Example 39, N-{7-[1-(4′-Chloro-biphenyl-2-ylmethyl)-piperidin-4-yl]-5,6,7,8-tetrahydro-pyrido[3,4-d]pyrimidin-4-yl}-4-[(R)-1-(3,4-dichloro-phenylsulfanylmethyl)-3-dimethylamino-propylamino]-3-trifluoromethanesulfonyl-benzenesulfonamide]	41 nM
CN(C)CC[C@H](CSc1ccccc1Cl)Nc1ccc(S(=O)(=O)Nc2ncnc3c2CCN(C2CCN(Cc4ccccc4-c4ccc(Cl)cc4)CC2)C3)cc1S(=O)(=O)C(F)(F)F [Example 40]	32 nM
CN(C)CC[C@H](CSc1cc(Cl)cc(Cl)c1)Nc1ccc(S(=O)(=O)Nc2ncnc3c2CCN(C2CCN(Cc4ccccc4-c4ccc(Cl)cc4)CC2)C3)cc1S(=O)(=O)C(F)(F)F [Example 41, (R)-N-(7-(1-((4′-chlorobiphenyl-2-yl)-methyl)piperidin-4-yl)-5,6,7,8-tetrahydropyrido[3,4-c]pyrimidin-4-yl)-4-(1-(3,5-dichlorophenylthio)-4-(dimethylamino)butan-2-ylamino)-3-(trifluoromethylsulfonyl)benzenesulfonamide]	259 nM
CC(c1ccccc1-c1ccc(Cl)cc1)N1CCC(N2CCc3c(ncnc3NS(=O)(=O)c3ccc(N[C@H](CCN4CCOCC4)CSc4ccccc4)c(S(=O)(=O)C(F)(F)F)c3)C2)CC1 (stereo partly drawn) [Example 42, N-(7-(1-(1-(4′chlorobiphenyl-2-yl)ethyl)piperidin-4-yl)-5,6,7,8-tetrahydropyrido[3,4-d]pyrimidin-4-yl)-4-((R)-4-morpholino-1-(phenylthio)butan-2-ylamino)-3-(trifluoromethylsulfonyl)benzenesulfonamide]	97 nM
